# Measured values as given in PMC11984268 (BMC Cancer, 2025).
# Like-named read-outs stand apart in the source and are kept apart here.
# What was measured:
# [1] = Plasma pharmacokinetics by HPLC-MS/MS; type: in vivo, human; conditions: for concentration at 24 h: read-out: Cmin 24h
# Protocol: Plasma samples were collected pre-dose and 1, 2, 4, 6, 8, 10 and 24 h after the dose on C1/D21. PK trough samples (pre-dose; 2 h post-dose) were obtained on day 21 of cycles 2, 4, 6, 8, 10 and 12.
# [2] = tested on: pMEK1/2; assay: pMEK1/2 in paired skin biopsies, Western blotting/densitometry; type: in vivo, human; conditions: dose escalation, cohort 7, 12 and 13, C1D15
# Protocol: (§1) All patients in the dose escalation phase consented to a fresh frozen punch skin biopsy during screening and on C1/D15 (± 7 days). Fresh frozen skin and tumour biopsies during screening and on C1/D15 (± 7 days) were also required for the first 13 patients in the dose expansion phase. PD markers of MEK1/2 inhibition (pMEK1/2; pERK1/2) in skin biopsies and MET inhibition (pSTAT3) in tumour biopsy were assessed by Western blotting (WB), as previously described. Densitometry on WB images was performed using ImageJ software.
# [3] = in vivo; cited from earlier work
# [4] = tested on: cMET; conditions: cited from earlier work
# [5] = patients with advanced solid cancers; cited from earlier work
# [6] = tested on: pMET^Y1003; assay: pMET Y1003 in paired tumour biopsies, Western blotting; type: in vivo, human; conditions: one patient with paired biopsy, dose expansion, C1D15
# [7] = tested on: pSTAT3^Y705; assay: pSTAT3 Y705 in paired tumour biopsies, Western blotting; type: in vivo, human; conditions: one patient with paired biopsy, dose expansion, C1D15
# Protocol: as §1
# [8] = remark: listed apart in the source
# Protocol: A rolling-six design was employed.
# Safety assessments, ophthalmic/cardiac examinations were performed as previously described. […] Anti-tumour activity was conducted at baseline (within 28 days prior to C1/day 1 (D1)) and then every 2 cycles and evaluated by RECIST v1.1.
# Safety and efficacy data were summarised using descriptive statistics. Evaluable patients for toxicity were those patients that received at least one dose of one or both drugs. Evaluable patients for MTD or dose escalation were those patients who completed C1 or withdrew early for experiencing a DLT. Response analyses (RECIST v1.1) were performed on an intention-to-treat basis, and any patient who received any dose of study treatment was evaluable for response. PFS was defined as the time between receiving the first dose of study medication to disease progression or death from any cause. OS was defined as the time between C1D1 to death from any cause. PFS and OS were estimated using the Kaplan–Meier method. Statistical significance was calculated from distinct technical replicates by Student’s t-test (2-tailed, 2 sample equal variance on unpaired data), in GraphPad Prism 8. Graphs were plotted as means with error bars represented as SD; statistical significance was denoted as follows: *** = p < 0.001, ** = p < 0.01, * = p < 0.05, ns = p > 0.05.
# [9] = Cycle 1, Day 21, Cohort 7: binimetinib 30mg B.D 28d, crizotinib 200mg B.D, n = 7
# [10] = Cycle 1, Day 21, Cohort 12: binimetinib 30mg B.D 21d, crizotinib 200mg B.D, n = 5
# [11] = Cycle 1, Day 21, Cohort 13: binimetinib 30mg B.D 21d, crizotinib 250mg O.D, n = 6
# [12] = Cycle 1, Day 21, Dose expansion phase: binimetinib 30mg B.D 21d, crizotinib 250mg O.D, n = 26
# [13] = human, plasma, dose escalation phase, 3 cohorts, oral, read-out: time of peak plasma concentrations after dosing
Compound,"AUC0-10h [1, 9]","Cmax [1, 9]","Cmin [1, 9]","Tmax [1, 9]","AUC0-10h [1, 10]","Cmax [1, 10]","Cmin [1, 10]","Tmax [1, 10]","AUC0-10h [1, 11]","Cmax [1, 11]","Cmin [1, 11]","Tmax [1, 11]","AUC0-10h [1, 12]","Cmax [1, 12]","Cmin [1, 12]","Tmax [1, 12]","Tmax [1, 13] [h]",further results
O=C(NOCCO)c1cc2[nH]cnc2c(F)c1Nc1ccc(Br)cc1F [AR0042603],203 (112) ng*h/ml (SD),25.1 (15.1) ng/ml (SD),10.4 (2.66) ng/ml (SD),3.03 (1.97) h (SD),183 (24.8) ng*h/ml (SD),29.5 (8.62) ng/ml (SD),10.2 (2.47) ng/ml (SD),1.75 (0.5) h (SD),121 (28.9) ng*h/ml (SD),23.4 (8.04) ng/ml (SD),6.95 (1.6) ng/ml (SD),1.84 (1.16) h (SD),194 (85.2) ng*h/ml (SD),22.7 (16.0) ng/ml (SD),12.1 (4.8) ng/ml (SD),3.15 (1.99) h (SD),–,–
Cn1cnc2c(F)c(Nc3ccc(Br)cc3F)c(C(=O)NOCCO)cc21 [binimetinib],1604 (554) ng*h/ml (SD),265 (83.4) ng/ml (SD),77.1 (40.3) ng/ml (SD),2.26 (2.14) h (SD),1780 (706) ng*h/ml (SD),386 (189) ng/ml (SD),85.8 (51.9) ng/ml (SD),1.75 (0.5) h (SD),1402 (666) ng*h/ml (SD),320 (136) ng/ml (SD),64.0 (28.9) ng/ml (SD),1.51 (0.54) h (SD),2129 (1152) ng*h/ml (SD),357 (171) ng/ml (SD),103 (58.5) ng/ml (SD),2.55 (1.5) h (SD),0.98 to 6,"MTD (binimetinib dose in the combination) (days 1–21 every 28 days, with crizotinib 250 mg O.D continuously): 30 mg B.D; pMEK1/2 (catalytically-inactive) in skin biopsies, post- vs pre-treatment [2]: significant accumulation; RP2D [3]: 45 mg B.D; doses achieving plasma concentrations required to inhibit pERK1/2 [3]: ≥ 30 mg B.D"
C[C@@H](Oc1cc(-c2cnn(C3CCNCC3)c2)cnc1N)c1c(Cl)ccc(F)c1Cl [crizotinib],2481 (980) ng*h/ml (SD),–,205 (78.0) ng/ml (SD),–,2119 (1341) ng*h/ml (SD),–,181 (136) ng/ml (SD),–,1467 (410) ng*h/ml (SD),–,114 (43.1) ng/ml (SD),–,1647 (907) ng*h/ml (SD),–,149 (85.3) ng/ml (SD),–,0.97 to 6,"MTD (crizotinib dose in the combination) (continuously, with binimetinib 30 mg B.D days 1–21 every 28 days): 250 mg O.D; AUC0-24h [1, 11]: 2529 (380) ng*h/ml (SD); AUC0-24h [1, 12]: 3479 (2083) ng*h/ml (SD); median trough plasma concentrations ([1]; cohort 13, crizotinib 250 mg O.D): > 62 ng/mL; concentration at 24 h ([1]; human, plasma, oral, Cycle 1, Day 21, Cohort 13: binimetinib 30mg B.D 21d, crizotinib 250mg O.D, n = 6): 72.6 ng/mL; concentration at 24 h ([1]; human, plasma, oral, Cycle 1, Day 21, Dose expansion phase: binimetinib 30mg B.D 21d, crizotinib 250mg O.D, n = 26): 109 ng/mL; pre-clinically predicted effective concentration to inhibit cMET [4]: 62 ng/mL; maximum-tolerated dose (MTD) of crizotinib with PD- 0325901 [5]: 200 mg B.D; pMET Y1003 levels in tumour during treatment [6]: increased; pSTAT3 Y705 levels in tumour during treatment [7]: decreases; DR-AE determined to be related to the drug ([8]; dose escalation phase, of 210 DR-AE): 164; DR-AE determined to be related to the drug ([8]; dose expansion phase, of 297 DR-AE): 244"
